Among the test systems are SK-MEL-2; NCI-H522; SK-MEL-5; A498; SK-OV-3; PC-3; ACHN; UACC-62; Malme-3M; A549; NCI-H23; TK-10; NCI/ADR-RES; HCT-15; NCI-H460; CCRF-CEM; KM12; HCT-116; COLO 205.
Assay in all cases: inhibition of tumour cell growth, NCI panel, 48 h

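Tested at 5 concentrations; 48 h exposure; 96-well plates; endpoints linearly interpolated, else capped at highest concentration. GI50 = concentration required for 50% inhibition of growth.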 Calls of active or inactive are those of the source. No stated cut-off is given here; in the data, active = GI50 up to about 1.1 µM and inactive = higher.

Turning to `N=C1N(/N=C/c2ccccn2)/C(=N\c2ccccc2)C(=S)N1c1ccccc1`, the GI50 is 2.14 µM (inactive) with SK-MEL-2; 1.92 µM (inactive) in the test on NCI-H522; 4.48 µM (inactive) in the test on SK-MEL-5; 19.4 µM (inactive) in the test with A498; 16.6 µM (inactive) with SK-OV-3; 3.57 µM (inactive) in the test with PC-3. For the same molecule, the GI50 is 2.55 µM (inactive) in the test on ACHN; 1.17 µM (inactive) with UACC-62; 10.9 µM (inactive) in the test with Malme-3M; 5.51 µM (inactive) in the test on A549; 6.07 µM (inactive) in the test on NCI-H23; 11 µM (inactive) with TK-10. The GI50 was 2.83 µM (inactive) in the test with NCI/ADR-RES; 2.54 µM in the test on HCT-15; 4.15 µM (inactive) in the test on NCI-H460; 2.05 µM (inactive) in the test on CCRF-CEM; 4.01 µM (inactive) in the test with KM12; 2.87 µM (inactive) with HCT-116. Further, in the test on COLO 205, the GI50 was 1.42 µM (inactive).

In the case of `C=CCN1CCC(O)(c2cc(C(=O)OCC)[nH]c2-c2cc(C)no2)C1` (stereo not drawn), the GI50 with SK-MEL-2, in the test on NCI-H522, in the test with SK-MEL-5, in the test on A498, with SK-OV-3 and in the test with PC-3 was > 100 µM (inactive) throughout. The GI50 in the test on ACHN, in the test with UACC-62, with Malme-3M, in the test with A549, in the test with NCI-H23 and with TK-10 was > 100 µM (inactive) each time. The GI50 with NCI/ADR-RES is > 100 µM (inactive); with HCT-15 it was over 100 µM; in the test with NCI-H460, > 100 µM (inactive); with CCRF-CEM, > 100 µM (inactive); in the test with KM12 it was > 100 µM (inactive); in the test with HCT-116, > 100 µM (inactive). Further, the GI50 in the test on COLO 205 is > 100 µM (inactive).

`CC(=O)NC1C(OCc2ccccc2)OC(CO)C(O)C1OCC(=O)N[C@@H](C)C(=O)N[C@H](CCC(=O)NCCNc1ccc([N+](=O)[O-])c2[nH]c3ccccc3c(=O)c12)C(N)=O` (stereo partly drawn): the GI50 in the test on NCI-H522 was 7.62 µM (inactive); with SK-MEL-5, 24.8 µM (inactive); in the test with A498, 24 µM (inactive); with SK-OV-3, 81.5 µM (inactive); in the test on ACHN it was 12.1 µM (inactive); in the test on UACC-62, 18.7 µM (inactive). In addition, the GI50 in the test on Malme-3M was 84.5 µM (inactive); in the test with NCI-H23, 32.3 µM (inactive); in the test with TK-10, 15.4 µM (inactive); in the test with NCI/ADR-RES it was 21.6 µM (inactive); in the test on HCT-15, 13.5 µM; with NCI-H460, 8.99 µM (inactive). Further, the GI50 in the test with CCRF-CEM was 67.6 µM (inactive); with KM12, 20.1 µM (inactive); in the test on HCT-116, 6.56 µM (inactive); in the test with COLO 205 it was 15.9 µM (inactive).

With `CC(=O)OCC1OC(OC(C)=O)C(NC#N)C(OC(C)=O)C1OC(C)=O` (stereo not drawn), the GI50 with SK-MEL-2 was 50.7 µM (inactive); with NCI-H522, > 100 µM (inactive); in the test with SK-MEL-5 it was 73.1 µM (inactive); in the test with A498, > 100 µM (inactive); in the test with SK-OV-3, > 100 µM (inactive); in the test on ACHN, 49.7 µM (inactive). Moreover, the GI50 in the test on UACC-62 is > 100 µM (inactive); with Malme-3M, > 100 µM (inactive); with A549, > 100 µM (inactive); in the test on NCI-H23, > 100 µM (inactive); in the test on TK-10 it was > 100 µM (inactive); in the test on HCT-15, over 100 µM. The GI50 in the test on NCI-H460 was 68.1 µM (inactive); in the test on CCRF-CEM it was 43.7 µM (inactive); with KM12, > 100 µM (inactive); in the test with HCT-116, > 100 µM (inactive); in the test with COLO 205 it was > 100 µM (inactive).

Turning to `CN(C)/C=C/C=C(/C=N/S(=O)(=O)C(F)(F)F)C1C=CN(S(=O)(=O)C(F)(F)F)C=C1`, the GI50 was 24.5 µM (inactive) with SK-MEL-2; 21.6 µM (inactive) with NCI-H522; 23.5 µM (inactive) in the test with SK-MEL-5; 41 µM (inactive) in the test with A498; 28.4 µM (inactive) in the test on SK-OV-3; 28.8 µM (inactive) in the test with ACHN. For the same molecule, the GI50 with UACC-62 was 42.3 µM (inactive); in the test with Malme-3M it was 32 µM (inactive); in the test on A549, 32.4 µM (inactive); with NCI-H23, 23.3 µM (inactive); in the test on TK-10 it was 36.6 µM (inactive); with NCI/ADR-RES it was 30.3 µM (inactive). Also, the GI50 in the test on HCT-15 is 23.4 µM; in the test on NCI-H460, 24.3 µM (inactive); in the test with CCRF-CEM, 27.1 µM (inactive); with KM12, 25 µM (inactive); in the test on HCT-116, 29.2 µM (inactive); in the test on COLO 205 it was 17.7 µM (inactive).

As to `COc1ccc(-c2nc3ccccc3s2)cc1OC`, the GI50 in the test on SK-MEL-2 was > 100 µM (inactive); in the test on SK-MEL-5 it was 10.5 µM (inactive); in the test with SK-OV-3 it was 15.5 µM (inactive); with PC-3, 34.9 µM (inactive); in the test on ACHN, 40.4 µM (inactive); in the test with UACC-62 it was 37.4 µM (inactive). Besides, the GI50 with A549 is 51.6 µM (inactive); in the test on NCI-H23 it was 42.4 µM (inactive); in the test on NCI/ADR-RES it was 42.5 µM (inactive); in the test with HCT-15, 43.7 µM; in the test with NCI-H460, 20.1 µM (inactive); in the test with CCRF-CEM, 76.9 µM (inactive). Also, the GI50 in the test with KM12 was 30.2 µM (inactive); with HCT-116, 45.1 µM (inactive); with COLO 205, 21.9 µM (inactive).

For `N#CC(C#N)=Cc1ccc(CP(=O)(O)O)cc1`, the GI50 in the test with SK-MEL-2 is > 100 µM (inactive); in the test with NCI-H522 it was 59.6 µM (inactive); with SK-MEL-5, > 100 µM (inactive); in the test with A498, > 100 µM (inactive); in the test on SK-OV-3, > 100 µM (inactive); in the test with ACHN it was > 100 µM (inactive). Further, the GI50 in the test on UACC-62 was > 100 µM (inactive); in the test on Malme-3M, > 100 µM (inactive); with A549 it was > 100 µM (inactive); with NCI-H23, > 100 µM (inactive); in the test on TK-10, > 100 µM (inactive); with HCT-15, over 100 µM. Moreover, the GI50 is > 100 µM (inactive) in the test with NCI-H460; 44.2 µM (inactive) with CCRF-CEM; > 100 µM (inactive) in the test on KM12; > 100 µM (inactive) in the test on HCT-116; > 100 µM (inactive) in the test with COLO 205.

Consider `O=C1CSC(C(/N=N/c2ccccc2)=C2Nc3ccccc3N2)=N1`, for which the GI50 is 53.3 µM (inactive) with SK-MEL-2; 56.4 µM (inactive) with NCI-H522; 39.8 µM (inactive) with SK-MEL-5; 30.7 µM (inactive) in the test with A498; 18.3 µM (inactive) in the test on SK-OV-3; 31 µM (inactive) with ACHN. Further, the GI50 is 31.8 µM (inactive) in the test on UACC-62; 58.3 µM (inactive) in the test on Malme-3M; 53.2 µM (inactive) in the test with A549; 74.5 µM (inactive) with NCI-H23; > 100 µM (inactive) in the test on TK-10; 54.6 µM in the test with HCT-15. Also, the GI50 was 38.6 µM (inactive) with NCI-H460; 5.79 µM (inactive) in the test on CCRF-CEM; 66.1 µM (inactive) in the test on KM12; 32.4 µM (inactive) in the test with HCT-116; > 100 µM (inactive) in the test on COLO 205.

(Values after ChEMBL document CHEMBL1201862, “PubChem BioAssay data set” (2004).)
